From patent US6943181B2, “Use of substituted gamma-lactone compounds as pharmaceutical preparations” (Grunenthal GmbH, priority 2001, dated 2005)

Biological target: T1, nitrogen monoxide synthase (NO synthase) (Rattus norvegicus, UniProt P29476)
T1 construct: the supernatant was then decanted off and frozen in portions; from tissue; host or cells: rat cerebellum (homogenate, 20,000 g supernatant)
Experiment: HTS-NOS assay (nitrogen monoxide synthase assay)
Assay type: biochemical
Details: compound at 10 μM; enzyme preparation from rat cerebella; [3H]-arginine substrate
Source text: This assay makes it possible to determine the percentage inhibition of NO synthase by a compound of the general formula I used according to the invention by measuring NOS activity on exposure to the compound. NO synthase is here mixed under suitable conditions together with radioactively labelled arginine and the particular compound of the general formula I. After termination of the NO formation reaction at a predetermined time, the quantity of unconverted arginine is directly or indirectly determined. […] This assay may be carried out at follows: • (a) Incubation of the NO synthase with labelled arginine as the substrate in a reaction vessel, • (b) Separation of the labelled arginine from the labelled citrulline optionally arising as a product of the enzymatic reaction at a time at which the concentration of citrulline is rising, • (c) Measurement of the quantity of arginine separated in each case.
Separation is performed by means of a filter plate membrane.
Radioactive arginine is used as the substrate in this HTS-NOS assay. Depending on the type of microtitre plate (MTP), the assay volume may be selected in the range between 25 μl and 250 μl. Depending on the enzyme source used, cofactors and coenzymes are added. The batches are incubated in this microtitre plate (assay MTP) according to step (a) at room temperature and, depending on the enzyme activity used (units), lasts between 5 and 60 minutes. On completion of incubation (step (a)), the plate is placed in a cell harvester, which is equipped with an MTP which has a cation exchange membrane as a filter bottom (filter MTP). All the batches from the assay MTP are transferred into this filter MTP and suction filtered through a cation exchange filter plate, a paper filter loaded with phosphate groups. The filter MTP is then washed with buffer or water. This procedure binds the remaining substrate arginine onto the cation exchanger, while the enzymatically formed radioactive citrulline is quantitatively eluted. Once the filter MTP has been dried and scintillation liquid added, the bound arginine can be counted in the scintillation counter. Low radioactivity indicates an uninhibited NOS reaction. An inhibited enzyme reaction means that the radioactive arginine has not been converted. This means that there is a high level of radioactivity on the filter.
• Arginine, L-[2,3,4-^3H]-monohydrochloride; item no. […] The pH value of the buffer was adjusted to 7.4 at 25° C. • Washing medium: H2O Enzyme Preparation
Rat cerebella were used as the starting tissue. The animals were stunned and killed, the brain tissue, the cerebellum, was dissected out, 1 ml of enzyme preparation buffer (4° C.) was added per cerebellum, and the tissue was disrupted for 1 min at 6000 rpm in a Polytron homogeniser. The mixture was then centrifuged at 4° C. for 15 min at 20,000 g, and the supernatant was then decanted off and frozen in portions at −80° C. (discarding the precipitate).
96-Well MTPs with a well capacity of ≦250 μl were used Pipetting sequence: see table 1:
Once the pipetting operation was complete, a lid was laid on top of this MTP (assay MTP). Incubation at 25° C. (room temperature (RT)) for 5-60 min, depending on the quantity and activity of the enzyme used.
The contents of the assay MTP were then transferred with the assistance of a 96 well cell harvester into a 96 well cation exchange MTP (filter MTP) and suction filtered. A single washing with […] of H2O (from a trough) was then performed.
The plate was then dried for 1 h at 60° C. in a drying cabinet. The bottom of the filter MTP was then carefully sealed from beneath with a “back seal”. 35 μl of scintillating material were then pipetted into each well. The top of the plate was also sealed with a “top seal”. After 1 hour's waiting time, the plate was assessed on the β-counter.

| Structure (SMILES) | inhibition at 10 µM [%] |
| --- | --- |
| COc1cc(OC)cc(C2(C)CC(Nc3n[nH]cc3Br)C(=O)O2)c1 (centres unmarked) [Example 62, 3-(4-Bromo-1H-pyrazol-3-ylamino)-5-(3,5-dimethoxy-phenyl)-5-methyl-dihydro-furan-2-one] | 40 |
| COc1ccccc1C1(C)CC(Nc2n[nH]cc2Br)C(=O)O1 (centres unmarked) [Example 63, 3-(4-Bromo-1H-pyrazol-3-ylamino)-5-(2-methoxy-phenyl)-5-methyl-dihydro-furan-2-one] | 51 |
| Cc1cnc(NC2CC(C)(c3ccc(C(C)(C)C)cc3)OC2=O)c(Br)c1 (centres unmarked) [Example 14, 3-(3-Bromo-5-methyl-pyridin-2-ylamino)-5-(4-tert-butyl-phenyl)-5-methyl-dihydro-furan-2-one] | 48 |
| Cc1ccnc(NC2CC(C)(c3cc4ccccc4o3)OC2=O)c1 (centres unmarked) [Example 31, 5-Benzofuran-2-yl-5-methyl-3-(4-methyl-pyridin-2-ylamino)-dihydro-furan-2-one] | 44 |
| CC(C)C1(c2ccccc2)CC(Nc2ccc([N+](=O)[O-])cn2)C(=O)O1 (centres unmarked) [Example 43, 5-Isopropyl-3-(5-nitro-pyridin-2-ylamino)-5-phenyl-dihydro-furan-2-one] | 45 |
| CCOC(=O)c1c[nH]nc1NC1CC(C)(c2ccc(I)cc2)OC1=O (centres unmarked) [Example 46, 3-[5-(4-Iodo-phenyl)-5-methyl-2-oxo-tetrahydro-furan-3-ylamino]-1H-pyrazole-4-carboxylic acid ethyl ester] | 44 |
| CC1(c2ccc3c(c2)CCCC3)CC(Nc2ncc(Br)cc2[N+](=O)[O-])C(=O)O1 (centres unmarked) [Example 41, 3-(5-Bromo-3-nitro-pyridin-2-ylamino)-5-methyl-5-(5,6,7,8-tetrahydro-naphthalen-2-yl)-dihydro-furan-2-one] | 53 |
| CCOc1ccc(C2(C)CC(Nc3cc(C)cc(C)n3)C(=O)O2)cc1 (centres unmarked) [Example 12, 3-(4,6-Dimethyl-pyridin-2-ylamino)-5-(4-ethoxy-phenyl)-5-methyl-dihydro-furan-2-one] | 59 |
| COc1ccc(C2(C)CC(Nc3cc(C)ccn3)C(=O)O2)cc1 (centres unmarked) [Example 75, 5-(4-Methoxy-phenyl)-5-methyl-3-(4-methyl-pyridin-2-ylamino)-dihydro-furan-2-one] | 48 |
| Cc1cc(C)nc(NC2CC(C)(c3ccc(Oc4ccccc4)cc3)OC2=O)c1 (centres unmarked) [Example 21, 3-(4,6-Dimethyl-pyridin-2-ylamino)-5-methyl-5-(4-phenoxy-phenyl)-dihydro-furan-2-one] | 91 |
| Cc1nc(NC2CC(C)(c3ccc(Oc4ccccc4)cc3)OC2=O)ccc1Br (centres unmarked) [Example 17, 3-(5-Bromo-6-methyl-pyridin-2-ylamino)-5-methyl-5-(4-phenoxy-phenyl)-dihydro-furan-2-one] | 43 |
| CC1(c2ccc(Br)cc2)CC(Nc2ccc(Br)cn2)C(=O)O1 (centres unmarked) [Example 47, 5-(4-Bromo-phenyl)-3-(5-bromo-pyridin-2-ylamino)-5-methyl-dihydro-furan-2-one] | 54 |
| Cc1ccnc(NC2CC(C)(c3ccc(C)cc3C)OC2=O)c1 (centres unmarked) [Example 7, 5-(2,4-Dimethyl-phenyl)-5-methyl-3-(4-methyl-pyridin-2-ylamino)-dihydro-furan-2-one] | 45 |
| Cc1cccnc1NC1CC(C)(c2ccc(Br)cc2)OC1=O (centres unmarked) [Example 59, 5-(4-Bromo-phenyl)-5-methyl-3-(3-methyl-pyridin-2-ylamino)-dihydro-furan-2-one] | 45 |

The remaining lines, values ahead:

| inhibition at 10 µM [%] | Structure (SMILES) |
| --- | --- |
| 41 | CC1(c2ccc3c(c2)OCO3)CC(Nc2n[nH]cc2C#N)C(=O)O1 (centres unmarked) [Example 32, 3-(5-Benzo[1,3]dioxol-5-yl-5-methyl-2-oxo-tetrahydro-furan-3-ylamino)-1H-pyrazole-4-carbonitrile] |
| 44 | Cc1cc(C)nc(NC2CC(C)(c3ccc(C(C)(C)C)cc3)OC2=O)c1 (centres unmarked) [Example 22, 5-(4-tert-Butyl-phenyl)-3-(4,6-dimethyl-pyridin-2-yl-amino)-5-methyl-dihydrofuran-2-one] |
| 55 | Cc1ccnc(NC2CC(C)(c3ccc4c(c3)CCCC4)OC2=O)c1 (centres unmarked) [Example 38, 5-Methyl-3-(4-methyl-pyridin-2-ylamino)-5-(5,6,7,8-tetrahydro-naphthalen-2-yl)-dihydro-furan-2-one] |
| 44 | Cc1cnc(NC2CC(C)(c3ccc(C#N)cc3)OC2=O)c(Br)c1 (centres unmarked) [Example 13, 4-[4-(3-Bromo-5-methyl-pyridin-2-ylamino)-2-methyl-5-oxo-tetrahydro-furan-2-yl]-benzonitrile] |
| 42 | Cc1cc(C)nc(NC2CC(C)(c3ccc4c(c3)CCCC4)OC2=O)c1 (centres unmarked) [Example 35, 3-(4,6-Dimethyl-pyridin-2-ylamino)-5-methyl-5-(5,6,7,8-tetrahydro-naphthalen-2-yl)-dihydro-furan-2-one] |
| 56 | COc1ccc(C2(C)CC(Nc3cc(C)cc(C)n3)C(=O)O2)cc1 (centres unmarked) [Example 73, 3-(4,6-Dimethyl-pyridin-2-ylamino)-5-(4-methoxy-phenyl)-5-methyl-dihydro-furan-2-one] |
| 59 | CC1(c2ccc(Br)cc2)CC(Nc2ncccc2OCc2ccccc2)C(=O)O1 (centres unmarked) [Example 56, 3-(3-Benzyloxy-pyridin-2-ylamino)-5-(4-bromo-phenyl)-5-methyl-dihydro-furan-2-one] |
| 61 | Cc1ccc(C2(C)CC(Nc3cc(C)cc(C)n3)C(=O)O2)cc1 (centres unmarked) [Example 10, 3-(4,6-Dimethyl-pyridin-2-ylamino)-5-methyl-5-p-tolyl-dihydro-furan-2-one] |
| 45 | Cc1cc(C)nc(NC2CC(C)(c3ccc(C4CCCCC4)cc3)OC2=O)c1 (centres unmarked) [Example 4, 5-(4-Cyclohexyl-phenyl)-3-(4,6-dimethyl-pyridin-2-ylamino)-5-methyl-dihydro-furan-2-one] |
| 54 | CC(C)(C)c1ccc(C2(C)CC(Nc3ncccc3OCc3ccccc3)C(=O)O2)cc1 (centres unmarked) [Example 20, 3-(3-Benzyloxy-pyridin-2-ylamino)-5-(4-tert-butyl-phenyl)-5-methyl-dihydro-furan-2-one] |
| 45 | CCCc1cccc(NC2CC(C)(c3ccc(C(C)(C)C)cc3)OC2=O)n1 (centres unmarked) [Example 15, 5-(4-tert-Butyl-phenyl)-5-methyl-3-(6-propyl-pyridin-2-ylamino)-dihydro-furan-2-one] |
| 73 | Cc1cc(C)nc(NC2CC(C)(c3cccc(Cl)c3)OC2=O)c1 (centres unmarked) [Example 58, 5-(3-Chloro-phenyl)-3-(4,6-dimethyl-pyridin-2-ylamino)-5-methyl-dihydro-furan-2-one] |
| 42 | Cc1cc(C)nc(NC2CC(C)(c3ccc(C)cc3C)OC2=O)c1 (centres unmarked) [Example 3, 5-(2,4-Dimethyl-phenyl)-3-(4,6-dimethyl-pyridin-2-ylamino)-5-methyl-dihydro-furan-2-one] |
| 40 | Cc1cc(C)nc(NC2CC(C)(c3cc4ccccc4o3)OC2=O)c1 (centres unmarked) [Example 29, 5-Benzofuran-2-yl-3-(4,6-dimethyl-pyridin-2-ylamino)-5-methyl-dihydro-furan-2-one] |
| 81 | Cc1cccc(C2(C)CC(Nc3cc(C)cc(C)n3)C(=O)O2)c1 (centres unmarked) [Example 11, 3-(4,6-Dimethyl-pyridin-2-ylamino)-5-methyl-5-m-tolyl-dihydro-furan-2-one] |
